Experimental data published in patent US10450275B2, “Compounds and methods for treating cancer, neurological disorders, ethanol withdrawal, anxiety, depression, and neuropathic pain” (Board of Regents, The University of Texas System, priority 2013, dated 2019).
Values joined by “and” are separate entries in the source; they are usually repeats but may differ in a detail not shown here. Equal entries are not always repeated. Where two headings read alike, the source gives them in different places.

What was measured:
fatty acid synthase = fatty acid synthase (Homo sapiens, UniProt P49327); test: fatty acid synthase inhibition; format: biochemical; conditions: read-out: Potency, fatty acid synthase inhibitor
Sequence of fatty acid synthase (P49327 whole entry): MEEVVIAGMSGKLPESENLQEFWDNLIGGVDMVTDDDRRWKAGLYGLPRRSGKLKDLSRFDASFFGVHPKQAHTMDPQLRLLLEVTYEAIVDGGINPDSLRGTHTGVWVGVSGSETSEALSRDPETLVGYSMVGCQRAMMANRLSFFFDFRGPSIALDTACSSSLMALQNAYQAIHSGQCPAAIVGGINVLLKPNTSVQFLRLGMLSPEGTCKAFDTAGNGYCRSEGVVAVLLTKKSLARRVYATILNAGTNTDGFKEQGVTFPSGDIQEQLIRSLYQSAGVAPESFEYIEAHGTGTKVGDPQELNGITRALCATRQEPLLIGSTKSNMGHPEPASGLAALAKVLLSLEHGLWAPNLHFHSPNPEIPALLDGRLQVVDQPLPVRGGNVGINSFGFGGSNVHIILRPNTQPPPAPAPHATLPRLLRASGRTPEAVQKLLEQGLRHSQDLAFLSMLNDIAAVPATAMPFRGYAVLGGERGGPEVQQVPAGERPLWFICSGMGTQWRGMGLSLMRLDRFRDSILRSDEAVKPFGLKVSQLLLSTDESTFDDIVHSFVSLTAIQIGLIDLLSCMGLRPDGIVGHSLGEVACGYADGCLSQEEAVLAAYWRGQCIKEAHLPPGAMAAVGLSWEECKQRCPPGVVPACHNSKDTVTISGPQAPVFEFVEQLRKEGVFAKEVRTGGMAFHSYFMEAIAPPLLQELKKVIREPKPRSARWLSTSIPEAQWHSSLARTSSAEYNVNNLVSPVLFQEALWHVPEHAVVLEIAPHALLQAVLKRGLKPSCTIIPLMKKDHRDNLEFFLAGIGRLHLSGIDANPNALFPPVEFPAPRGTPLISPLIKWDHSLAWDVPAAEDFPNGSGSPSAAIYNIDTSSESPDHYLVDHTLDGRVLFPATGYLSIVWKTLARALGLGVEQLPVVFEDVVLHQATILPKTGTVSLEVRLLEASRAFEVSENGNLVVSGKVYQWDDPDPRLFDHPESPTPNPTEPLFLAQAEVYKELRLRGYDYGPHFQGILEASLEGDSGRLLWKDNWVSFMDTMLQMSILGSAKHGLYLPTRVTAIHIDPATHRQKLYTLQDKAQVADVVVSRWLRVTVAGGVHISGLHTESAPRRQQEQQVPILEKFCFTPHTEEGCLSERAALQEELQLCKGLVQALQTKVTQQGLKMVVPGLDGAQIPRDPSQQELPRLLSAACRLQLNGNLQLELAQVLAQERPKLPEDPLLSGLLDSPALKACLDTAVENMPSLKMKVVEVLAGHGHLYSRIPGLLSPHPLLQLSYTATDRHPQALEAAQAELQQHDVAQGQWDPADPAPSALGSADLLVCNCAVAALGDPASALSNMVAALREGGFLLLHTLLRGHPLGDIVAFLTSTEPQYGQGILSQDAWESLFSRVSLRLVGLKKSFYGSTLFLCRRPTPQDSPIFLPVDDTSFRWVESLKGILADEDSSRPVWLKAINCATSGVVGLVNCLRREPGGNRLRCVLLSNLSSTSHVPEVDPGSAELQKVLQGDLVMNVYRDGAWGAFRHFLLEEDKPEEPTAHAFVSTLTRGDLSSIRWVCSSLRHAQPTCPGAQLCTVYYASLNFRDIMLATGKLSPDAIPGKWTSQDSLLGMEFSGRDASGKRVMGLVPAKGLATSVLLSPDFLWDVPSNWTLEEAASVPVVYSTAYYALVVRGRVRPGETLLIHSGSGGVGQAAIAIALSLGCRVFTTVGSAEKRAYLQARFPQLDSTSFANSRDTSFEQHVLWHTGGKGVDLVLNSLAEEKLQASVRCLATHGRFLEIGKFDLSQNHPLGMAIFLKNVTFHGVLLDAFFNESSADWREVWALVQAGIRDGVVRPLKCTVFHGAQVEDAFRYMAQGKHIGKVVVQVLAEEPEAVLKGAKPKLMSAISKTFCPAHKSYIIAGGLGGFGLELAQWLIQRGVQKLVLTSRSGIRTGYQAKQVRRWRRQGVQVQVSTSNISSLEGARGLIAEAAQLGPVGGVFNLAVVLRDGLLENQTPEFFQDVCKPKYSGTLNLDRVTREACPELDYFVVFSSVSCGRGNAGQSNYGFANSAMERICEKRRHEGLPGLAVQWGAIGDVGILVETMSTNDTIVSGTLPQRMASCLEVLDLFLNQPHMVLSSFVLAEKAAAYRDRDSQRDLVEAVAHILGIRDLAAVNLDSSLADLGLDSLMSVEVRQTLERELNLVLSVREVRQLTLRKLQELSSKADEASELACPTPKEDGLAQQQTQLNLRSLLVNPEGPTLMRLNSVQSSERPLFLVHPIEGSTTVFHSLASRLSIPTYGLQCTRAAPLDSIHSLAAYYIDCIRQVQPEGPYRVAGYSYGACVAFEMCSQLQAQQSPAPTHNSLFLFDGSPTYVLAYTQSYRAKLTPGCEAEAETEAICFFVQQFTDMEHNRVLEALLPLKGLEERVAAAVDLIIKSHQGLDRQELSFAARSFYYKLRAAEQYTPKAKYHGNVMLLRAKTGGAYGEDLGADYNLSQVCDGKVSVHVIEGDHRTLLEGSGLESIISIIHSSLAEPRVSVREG

[1] = system: Y. pestis topoisomerase I; format: biochemical; conditions: 10 μM
[2] = molecular target: T1, striatal-enriched protein tyrosine phosphatase (STEP) (Homo sapiens, UniProt P54829); test: striatal-enriched protein tyrosine phosphatase (STEP) inhibition; format: biochemical; conditions: read-out: Potency, striatal-enriched protein tyrosine phosphatase (STEP) inhibitor
T1 sequence (P54829 1-565): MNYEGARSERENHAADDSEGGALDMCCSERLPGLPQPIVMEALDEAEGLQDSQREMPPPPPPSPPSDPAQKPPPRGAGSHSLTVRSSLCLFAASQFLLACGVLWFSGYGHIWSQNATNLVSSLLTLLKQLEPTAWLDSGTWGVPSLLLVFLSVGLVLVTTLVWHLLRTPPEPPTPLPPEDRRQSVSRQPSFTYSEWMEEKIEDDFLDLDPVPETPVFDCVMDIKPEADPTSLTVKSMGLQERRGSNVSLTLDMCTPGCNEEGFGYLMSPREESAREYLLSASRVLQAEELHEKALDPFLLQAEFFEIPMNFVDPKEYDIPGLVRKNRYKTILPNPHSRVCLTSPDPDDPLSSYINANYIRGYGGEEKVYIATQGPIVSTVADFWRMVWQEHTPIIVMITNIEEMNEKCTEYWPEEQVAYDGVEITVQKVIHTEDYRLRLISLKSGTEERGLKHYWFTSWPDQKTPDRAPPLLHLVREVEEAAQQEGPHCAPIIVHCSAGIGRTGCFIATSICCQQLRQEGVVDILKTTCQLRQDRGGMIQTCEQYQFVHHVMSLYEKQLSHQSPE

[3] = molecular target: T2, microphthalmia-associated transcription factor (MITF) (Homo sapiens, UniProt O75030); test: microphthalmia-associated transcription factor (MITF) activation; format: cell-based; conditions: read-out: Potency (AC40), microphthalmia-associated transcription factor (MITF) activator
T2 sequence (O75030 1-526): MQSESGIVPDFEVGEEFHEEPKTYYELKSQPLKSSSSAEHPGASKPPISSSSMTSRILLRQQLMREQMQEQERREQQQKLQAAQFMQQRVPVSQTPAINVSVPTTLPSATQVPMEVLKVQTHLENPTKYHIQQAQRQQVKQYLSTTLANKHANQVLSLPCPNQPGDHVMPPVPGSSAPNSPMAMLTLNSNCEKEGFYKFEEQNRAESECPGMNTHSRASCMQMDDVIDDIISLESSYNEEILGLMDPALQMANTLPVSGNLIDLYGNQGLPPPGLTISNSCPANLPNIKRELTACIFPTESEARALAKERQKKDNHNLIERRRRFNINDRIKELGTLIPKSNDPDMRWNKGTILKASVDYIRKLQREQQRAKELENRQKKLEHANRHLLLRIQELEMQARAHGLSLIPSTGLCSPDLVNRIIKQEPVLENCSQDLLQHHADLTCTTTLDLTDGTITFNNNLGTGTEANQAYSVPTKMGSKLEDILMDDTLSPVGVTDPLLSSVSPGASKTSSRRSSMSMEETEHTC

[4] = Pharmacokinetic profile of JJS-1-166 in mice (plasma, LC-MS); format: in vivo, C57Bl/6j mice; conditions: for bioavailability: relative to the area under the curve for IV administration
Method: FIG. 1. Nine C57Bl/6j male mice (2-3 months old). Prior to PK evaluation, 3 animals were dosed with vehicle and were used to identify the standard curve using liquid chromatography-mass spectrometry (LC-MS) and as controls. Animals were randomized into 3 groups (n=3 per group). One group dosed Intravenously (IV), one group orally (PO), and one group subcutaneously (SC) with 10 mg/kg of the compound. […] (The first 4 collections are retro-orbital and the last one is terminal together with collection of the brain. Brain and blood will be flash frozen in liquid nitrogen and kept in −80° C. for later analysis. The concentration of compounds in the blood samples and brain tissues will be measured using LC-MS method.) We determined the blood brain barrier (BBB) permeability and pharmacokinetic (PK) profile of JJS-1-166 (phase I), and subsequently investigated the efficacy of JJS-1-166 in an Alzheimer's disease (AD) mouse model. LC-MS/MS Method Development for Compound JJS-1-166 [table] [table]

[5] = Blood brain barrier permeability / brain concentration and brain clearance of JJS-1-166 in mice; format: in vivo, C57Bl/6j mice; conditions: for brain exposure / concentration at 3 h: mouse; for concentration at 3 h: male, C57Bl/6j, brain, 10 mg/kg
Method: FIG. 1. Nine C57Bl/6j male mice (2-3 months old). Prior to PK evaluation, 3 animals were dosed with vehicle and were used to identify the standard curve using liquid chromatography-mass spectrometry (LC-MS) and as controls. Animals were randomized into 3 groups (n=3 per group). One group dosed Intravenously (IV), one group orally (PO), and one group subcutaneously (SC) with 10 mg/kg of the compound. From each animal blood will be collected 5 times: baseline (before the single dose); 5 minute; 30 minute; 1 hour; 3 hour after the single dose of the compound. (The first 4 collections are retro-orbital and the last one is terminal together with collection of the brain. Brain and blood will be flash frozen in liquid nitrogen and kept in −80° C. for later analysis. The concentration of compounds in the blood samples and brain tissues will be measured using LC-MS method.) FIG. 6. 3 day brain clearance study. A C57Bl/6j mouse was treated with 10 mg/kg JJS-1-166. After 3 days, the level of JJS-1-166 in the brain was assessed to ensure that all or a majority of the drug had been cleared. We determined the blood brain barrier (BBB) permeability and pharmacokinetic (PK) profile of JJS-1-166 (phase I), and subsequently investigated the efficacy of JJS-1-166 in an Alzheimer's disease (AD) mouse model. LC-MS/MS Method Development for Compound JJS-1-166 [table] [table]

[6] = as above; format: in vivo, C57Bl/6j mice; conditions: time point 24 h, individual animals
[7] = molecular target: serotonin 5A receptor (5HTR5A) (Homo sapiens, UniProt P47898); test: serotonin 5A receptor (5HTR5A) inverse agonist activity; format: cell-based; conditions: 9.3 μM
Sequence of serotonin 5A receptor (5HTR5A) (P47898 whole entry): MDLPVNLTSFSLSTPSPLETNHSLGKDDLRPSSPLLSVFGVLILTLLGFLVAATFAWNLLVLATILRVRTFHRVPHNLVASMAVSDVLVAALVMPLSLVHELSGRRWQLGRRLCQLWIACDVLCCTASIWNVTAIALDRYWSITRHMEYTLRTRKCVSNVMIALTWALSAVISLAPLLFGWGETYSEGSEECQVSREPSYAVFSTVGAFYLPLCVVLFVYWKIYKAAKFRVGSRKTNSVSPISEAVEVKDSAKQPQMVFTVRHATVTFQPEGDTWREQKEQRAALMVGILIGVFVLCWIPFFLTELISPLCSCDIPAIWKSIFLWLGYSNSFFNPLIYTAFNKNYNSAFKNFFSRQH

[8] = molecular target: mycobacterium tuberculosis bioA enzyme (Mycobacterium tuberculosis, UniProt P9WQ81); test: mycobacterium tuberculosis bioA enzyme inhibition; format: biochemical; conditions: read-out: Potency, mycobacterium tuberculosis bioA enzyme inhibitor
Sequence of mycobacterium tuberculosis bioA enzyme (P9WQ81 whole entry): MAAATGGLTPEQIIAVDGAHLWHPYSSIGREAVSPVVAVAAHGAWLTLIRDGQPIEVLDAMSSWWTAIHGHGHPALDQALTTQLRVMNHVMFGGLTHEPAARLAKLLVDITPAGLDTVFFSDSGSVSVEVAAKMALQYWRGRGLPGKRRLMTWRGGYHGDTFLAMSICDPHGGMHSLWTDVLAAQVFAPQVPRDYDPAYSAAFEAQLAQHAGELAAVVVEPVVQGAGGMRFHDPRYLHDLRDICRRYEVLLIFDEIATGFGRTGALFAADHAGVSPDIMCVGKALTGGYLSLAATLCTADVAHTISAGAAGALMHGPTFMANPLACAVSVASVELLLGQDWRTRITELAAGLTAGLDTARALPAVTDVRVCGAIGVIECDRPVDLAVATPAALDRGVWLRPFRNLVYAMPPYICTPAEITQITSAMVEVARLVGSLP

[9] = molecular target: T3, human M1 muscarinic receptor (Homo sapiens, UniProt P11229); test: human M1 muscarinic receptor antagonist activity; format: cell-based; conditions: 3 μM
T3 sequence (P11229 1-460): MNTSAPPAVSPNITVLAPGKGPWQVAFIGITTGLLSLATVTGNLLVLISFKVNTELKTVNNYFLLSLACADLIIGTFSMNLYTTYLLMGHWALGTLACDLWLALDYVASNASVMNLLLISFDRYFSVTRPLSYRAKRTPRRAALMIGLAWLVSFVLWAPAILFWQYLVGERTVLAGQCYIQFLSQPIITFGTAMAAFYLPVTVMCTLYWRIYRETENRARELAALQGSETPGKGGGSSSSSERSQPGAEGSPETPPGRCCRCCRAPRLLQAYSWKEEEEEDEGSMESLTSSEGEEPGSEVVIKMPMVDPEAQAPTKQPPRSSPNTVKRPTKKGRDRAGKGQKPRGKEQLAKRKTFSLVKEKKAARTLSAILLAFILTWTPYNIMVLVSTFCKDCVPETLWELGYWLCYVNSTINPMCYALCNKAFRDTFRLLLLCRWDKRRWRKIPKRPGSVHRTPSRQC

[10] = time point 3 h, individual animals
[11] = time point 72 h, individual animals

Which inhibition at 15 µM (fatty acid synthase) does the source give for `COc1ccc(NC(=S)N2CCN(c3ccc4c(c3)[C@@H]3CCN(C(=O)OCc5ccccc5)[C@H]4C3)CC2)c(OC)c1` here?
Its inhibition at 15 µM is 57%.

Which “Potency, Y. pestis topoisomerase I inhibitor” value [1] does the source give for `O=C(OCc1ccccc1)N1CC[C@@H]2C[C@H]1c1c(Cl)cccc12` here?
Its value is 61% (10 μM).

Which melting point does the source give for `FC(F)(F)c1ccc(-c2ccc3c(c2)[C@@H]2C[C@H]3CCN2Cc2ccccc2)cc1` (stereo in doubt) [21{2,7}, 2-Benzyl-8-(4-(trifluoromethyl)phenyl)-2,3,4,5-tetrahydro-1H-1,5-methanobenzo[c]azepine] here?
Its melting point is 101 to 103 °C.

With `N#Cc1ccc(C(=O)N2CC[C@@H]3C[C@H]2c2cc(-c4ccccc4)ccc23)cc1` as the molecule, how does the inhibition at 20 µM [2] read?
The inhibition at 20 µM was 69%.

With `CCCCNc1ccc2c(c1)[C@@H]1C[C@H]2CCN1C(=O)OCc1ccccc1` as the molecule, how does the EC40 [3] read?
Its EC40 is 3.3 µM.

Which concentration at 24 h ([4]; C57Bl/6j, mouse, plasma, time point 24 h, individual animals, read-out: Drug concentration in the Plasma) does the source give for `CN1CCN(c2ccc3c(c2)[C@H]2CC3CCN2C(=O)OCc2ccccc2)CC1` [JJS-1-166] here?
Its concentration at 24 h is 0.14 ng/g.

What about the “plasma concentration (Cmax)” value ([4]; SC administration, 10 mg/kg, at 1 hour, mouse) of the same molecule?
Its value is “greater than 300 ng/dL”.

What about the “time for which detectable plasma levels were maintained” value ([4]; after SC, OP, and IV administration, mouse) of the same molecule?
The value was “greater than 150 minutes”.

What about the “plasma concentration (Cmax)” value ([4]; intravenous (IV) administration, 10 mg/kg, at 5 minutes, mouse) of the same molecule?
Its value is “greater than 1500 ng/dL”.

What about the concentration at 3 h ([4]; male, C57Bl/6j, mouse, plasma, 10 mg/kg, time point 3 h, individual animals, read-out: Drug concentration in the Plasma) of the same molecule?
Its concentration at 3 h is 156 ng/g.

What about the bioavailability ([4]; male, C57Bl/6j, plasma, oral, 10 mg/kg, mouse, read-out: OP bioavailability) of the same molecule?
The bioavailability was 7%.

And the bioavailability ([4]; male, C57Bl/6j, plasma, subcutaneous, 10 mg/kg, mouse, read-out: SC bioavailability)?
The bioavailability was 45%.

What about the pharmacokinetic properties ([4]; mouse, overall statement) of the same molecule?
The pharmacokinetic properties was “acceptable”.

And the “plasma concentration (Cmax)” value ([4]; oral (PO) administration, 10 mg/kg, at 30 min, mouse)?
Its value is “greater than 60 ng/dL”.

What about the “Drug concentration in the Plasma” value [4, 10] of the same molecule?
The value was 136.0 ng/g and 209.0 ng/g.

What about the “Drug concentration in the Plasma” value ([4]; time point 24 h, individual animals) of the same molecule?
The value was 0.163 ng/g and 0.0913 ng/g.

What about the “Drug concentration in the Plasma” value [4, 11] of the same molecule?
The value was “No Peak”.

What about the brain exposure ([5]; SC administration, 3 hours) of the same molecule?
The brain exposure was “high level of brain exposure”.

And the concentration at 3 h ([5]; time point 3 h, individual animals, read-out: Drug concentration in the Brain)?
Its concentration at 3 h is 1570 ng/g.

What about the concentration at 3 h ([5]; sc, 3 hours after subcutaneous (SC) administration, read-out: brain concentration) of the same molecule?
The concentration at 3 h was 15 ng/mL.

What about the brain exposure ([5]; overall statement) of the same molecule?
Its brain exposure is “adequate brain exposure”.

What about the “Drug concentration in the Brain” value [5, 10] of the same molecule?
The value was 1100.0 ng/g and 1840.0 ng/g.

What about the “Drug concentration in the Brain” value [5, 11] of the same molecule?
Its value is “No Peak”.

And the concentration at 24 h ([6]; C57Bl/6j, mouse, brain, 10 mg/kg, read-out: Drug concentration in the Brain)?
The concentration at 24 h was 1.76 ng/g.

What about the “Drug concentration in the Brain” value [6] of the same molecule?
Its value is 1.63 ng/g and 1.28 ng/g.

Which melting point does the source give for `COc1ccc(S(=O)(=O)N2CC[C@@H]3C[C@H]2c2cc(N4CCOCC4)ccc23)cc1` (stereo in doubt) [30{2,2,30}, 4-(2-((4-Methoxyphenyl)sulfonyl)-2,3,4,5-tetrahydro-1H-1,5-methanobenzo[c]azepin-8-yl)morpholine] here?
The melting point was 176 to 177 °C.

For `Clc1cccc(CN2CC[C@@H]3C[C@H]2c2cc(N4CCCCC4)ccc23)c1`, which “Potency, serotonin 5A receptor (5HTR5A) inverse agonist” value [7] is on record?
Its value is 27% (9.3 μM).

With `COc1ccc(-c2ccc3c(c2)[C@@H]2C[C@H]3CCN2)cc1` as the molecule, how does the inhibition at 10 µM [8] read?
Its inhibition at 10 µM is 91%.

Which “Potency, human M1 muscarinic receptor antagonist” value [9] does the source give for `O=C(c1cc(Cl)cc(Cl)c1)N1CC[C@@H]2C[C@H]1c1cc(N3CCCCC3)ccc12` here?
Its value is 69% (3 μM).
